Experiments:
[1] = test system: DCX45(pML82)-1B (disrupted cytochrome P450 reductase gene); test: disk sensitivity on YEPD of LEU+ spores / strain DCX45(pML82)-1B (Example 1); conditions: for sensitivity of LEU+ cultures compared with leu− cultures: spores plated on YEPD, disks containing the inhibitors
erg6 mutants = conditions: cited from earlier work
[2] = test system: Saccharomyces cerevisiae strain DCX45(pML82)-1B (disrupted cytochrome P450 reductase gene) versus strain STX429-2A (erg6); assay type: cell-based; conditions: 20 μg per disk; YEPD agar, 30° C., two days; differential of approximately 8 mm or more scored as active
Procedure: Liquid yeast extract, peptone and dextrose (YEPD) media is first prepared by mixing the following ingredients obtained from Difco
and autoclaving at 20 lbs for 15 min. Solidified YEPD media is prepared using the above ingredients, except that
(§1) Overnight cultures of S. cerevisiae strain DCX45-(pML82)-1B from Example 1 above and strain STX429-2A obtained from the Yeast Genetics Stock Center are grown in liquid YEPD media shaken at 30° C. to an OD600 of ˜5 or greater.
(§2) Test media are prepared by combining separately 0.5 parts STX429-2A inoculum to 100 parts of warm YEPD agar media and 2 parts of DCX45(pML82)-1B to 100 parts of warm YEPD agar media. Plates for each culture are poured. Test samples are prepared on disks in duplicate, and each is placed on a STX429-2A plate and a DCX45(pML82)-1B plate, testing 20 μg of test sample per disk. A ¼″ disk containing 10 μg of dinaconazole is used as a positive control on each plate.
(§3) The plates are incubated at 30° C. for two days and then examined to compare activity on the two strains. Actives produce a larger zone on the DCX45(pML82)-1B plate than on the STX429-2A plate. Only compounds producing a differential of approximately 8 mm or more are scored as active.

STX429-2A (erg 6) = conditions: strain STX429-2A (erg 6)
Procedure: as §2
The plates are incubated at 30° C. for two days and then examined to compare activity on the two strains. Actives produce a larger zone on the DCX45(pML82)-1B plate than on the STX429-2A plate.

DCX45 (pML82)-1B = test: imidazole sensitivity (limit of detection) on cytochrome P450 reductase disrupted strain; assay type: cell-based, Saccharomyces cerevisiae
Procedure: as §1, §2, §3
The imidazole sensitivity of these compounds in the strains is as follows: […]

[3] = test system: cytochrome P450 reductase yeast mutants (TSY11-6C, TSY21); conditions: cited from earlier work

Molecule: C/C=C/C/C=C/CCC(=O)[C@H]1O[C@H]1C(N)=O [cerulenin]
- sensitivity of strain DCX45(pML82)-1B [1]: increased sensitivity

Molecule: C[C@@H]1C[C@@H]([C@H](O)CC2CC(=O)NC(=O)C2)C(=O)[C@@H](C)C1 [cycloheximide]
- sensitivity or resistance of erg6 mutant strains (erg6 mutants): hypersensitivity

Molecule: CC(C)(C)C(O)/C(=C/c1ccc(Cl)cc1Cl)n1cncn1 (centres unmarked) [dinaconazole]
- activity in the cytochrome P450 reductase screen (larger zone on the DCX45(pML82)-1B plate than on the STX429-2A plate) [2]: active
- Limit of Detection (STX429-2A (erg 6)): 50 ng
- Limit of Detection (DCX45 (pML82)-1B): 2 ng
- sensitivity of LEU+ cultures compared with leu− cultures [1]: more sensitive

Molecule: Clc1ccc(COC(Cn2ccnc2)c2ccc(Cl)cc2Cl)cc1 (centres unmarked) [econazole]
- activity in the cytochrome P450 reductase screen (larger zone on the DCX45(pML82)-1B plate than on the STX429-2A plate) [2]: active
- Limit of Detection (STX429-2A (erg 6)): 50 ng
- Limit of Detection (DCX45 (pML82)-1B): 2 ng
- sensitivity of LEU+ cultures compared with leu− cultures [1]: more sensitive

Molecule: CN1C(=O)[C@]23CC4=CC=C[C@H](O)[C@H]4N2C(=O)[C@@]1(CO)SS3 [gliotoxin]
- activity in the cytochrome P450 reductase screen (larger zone on the DCX45(pML82)-1B plate than on the STX429-2A plate) [2]: positive

Molecule: CC(=O)N1CCN(c2ccc(OCC3COC(Cn4ccnc4)(c4ccc(Cl)cc4Cl)O3)cc2)CC1 (centres unmarked) [ketoconazole]
- activity in the cytochrome P450 reductase screen (larger zone on the DCX45(pML82)-1B plate than on the STX429-2A plate) [2]: active
- Limit of Detection (DCX45 (pML82)-1B): 5 ng
- sensitivity of strains TSY11-6C and TSY21 ([3]; disrupted cytochrome P450 reductase genes): sensitive
- increase in sensitivity of cytochrome P450 reductase yeast mutants ([3]; mutants lacking the cytochrome P450 reductase gene): 200 fold
- sensitivity of strain DCX45(pML82)-1B [1]: supersensitivity
- sensitivity of LEU+ cultures compared with leu− cultures [1]: more sensitive

Molecule: Clc1ccc(COC(Cn2ccnc2)c2ccc(Cl)cc2Cl)c(Cl)c1 (centres unmarked) [miconazole]
- activity in the cytochrome P450 reductase screen (larger zone on the DCX45(pML82)-1B plate than on the STX429-2A plate) [2]: active

Molecule: C[C@@H]1[C@H](O)[C@@H](C)/C=C/C=C/CC/C=C/C=C/C=C/C=C/C(O[C@H]2O[C@H](C)[C@@H](O)[C@H](N)[C@@H]2O)CC2O[C@](O)(CC(O)C(O)CCC(O)CC(O)CC(O)CC(=O)O[C@H]1C)CC(O)C2C(=O)O (some centres unmarked) [nystatin]
- sensitivity or resistance of erg6 mutant strains (erg6 mutants): resistance

Molecule: mevinolin [lactonized mevinolin]
- activity in the cytochrome P450 reductase screen (larger zone on the DCX45(pML82)-1B plate than on the STX429-2A plate) [2]: no response
